Measured values: patent US8163929B2, “Dihydropyridone amides as P2X7 modulators” (Roche Palo Alto LLC, priority 2008, dated 2012)

target: T1, P2X7 (UniProt Q99572); assay: P2X7 activity of Table 1; format: cell-based; conditions: pIC50 values for P2X7
T1 sequence (Q99572 1-595): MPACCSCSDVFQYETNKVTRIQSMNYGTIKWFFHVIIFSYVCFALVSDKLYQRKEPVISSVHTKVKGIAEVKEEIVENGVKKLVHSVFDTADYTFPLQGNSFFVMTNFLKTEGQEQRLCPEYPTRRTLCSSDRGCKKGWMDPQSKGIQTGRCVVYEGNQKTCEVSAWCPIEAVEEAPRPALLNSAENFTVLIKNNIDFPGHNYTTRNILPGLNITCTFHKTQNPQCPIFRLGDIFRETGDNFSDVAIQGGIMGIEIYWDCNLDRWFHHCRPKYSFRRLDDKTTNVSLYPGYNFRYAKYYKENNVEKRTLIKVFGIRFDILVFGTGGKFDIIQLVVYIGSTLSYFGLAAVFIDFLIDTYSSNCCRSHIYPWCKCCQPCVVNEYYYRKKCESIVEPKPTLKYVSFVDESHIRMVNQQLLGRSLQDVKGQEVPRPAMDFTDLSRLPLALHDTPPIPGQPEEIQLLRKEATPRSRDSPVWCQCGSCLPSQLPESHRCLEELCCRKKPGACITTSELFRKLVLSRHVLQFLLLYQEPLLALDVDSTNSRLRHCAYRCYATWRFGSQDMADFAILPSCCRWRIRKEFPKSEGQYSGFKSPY
Method in brief: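 FLIPR calcium flux with fluo-3 in 1321N1 cells expressing human P2X7 and HEK293 cells expressing rat P2X7, in HBSS with 2 mM CaCl2 and 2.5 mM probenecid. Antagonist pre-incubated 20 min at room temperature, then BzATP added (100 μM human, 5 μM rat). Peak response over 5 min normalised to 5 μM ionomycin.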

Row | pIC50 | Compound
1 | 7.455 | Cc1cnn(-c2cc(NC(=O)C3=CNC(=O)C[C@H]3c3ccc(F)cc3)c(C)cc2F)c(=O)c1 [Compound 143, (S)-4-(4-Fluoro-phenyl)-6-oxo-1,4,5,6-tetrahydro-pyridine-3-carboxylic acid [4-fluoro-2-methyl-5-(4-methyl-6-oxo-6H-pyridazin-1-yl)-phenyl]-amide]
2 | 7.265 | Cc1cnn(-c2cc(NC(=O)C3=CN(C)C(=O)C[C@H]3c3ccc(F)cc3)c(C)cc2F)c(=O)c1 [Compound 145, (S)-4-(4-Fluoro-phenyl)-1-methyl-6-oxo-1,4,5,6-tetrahydro-pyridine-3-carboxylic acid [4-fluoro-2-methyl-5-(4-methyl-6-oxo-6H-pyridazin-1-yl)-phenyl]-amide]
3 | 5.74 | CN1C=C(C(=O)Nc2cc(-n3ncccc3=O)ccc2F)[C@H](c2ccc(F)cc2)CC1=O [Compound 146, (S)-4-(4-Fluoro-phenyl)-1-methyl-6-oxo-1,4,5,6-tetrahydro-pyridine-3-carboxylic acid [2-fluoro-5-(6-oxo-6H-pyridazin-1-yl)-phenyl]-amide]
4 | 7.41 | Cc1cc(F)c(-c2cc(C)n(CCO)n2)cc1NC(=O)C1=CN(C)C(=O)C[C@H]1c1ccc(F)cc1 [Compound 148, (S)-4-(4-Fluoro-phenyl)-1-methyl-6-oxo-1,4,5,6-tetrahydro-pyridine-3-carboxylic acid {4-fluoro-5-[1-(2-hydroxy-ethyl)-5-methyl-1H-pyrazol-3-yl]-2-methyl-phenyl}-amide]
